The values below come from patent US20240360179A1, “STAPLED PEPTIDES AND METHODS THEREOF” (FOG PHARMACEUTICALS, INC., priority 2021, published 2024).

pIC50: −log10 of the molar value.

The first experiment concerns COLO320DM cells. The experiment in a line: COLO320DM proliferation assay (CellTiter-Glo). Particulars: absolute IC50, read-out: COLO320DM Proliferation Abs IC50. The experiment is classed as cell-based, human. How it is done:
COLO320DM proliferation assay IC50: In some embodiments, inhibition of cell proliferation by provided technologies were assessed using cell lines related to or from certain conditions, disorders or diseases. In some embodiments, cell proliferation was assessed in COLO320DM cells. In some embodiments, assessment was performed using the following procedure: On Day 1, cultured COLO320DM cells in a T75 flask were trypsinized in 3 mL of 0.250% trypsin/EDTA for 5 min and quenched with 10 mL RPMI-1640+4% HI FBS assay media. The cells were spun down at 1200 rpm for 5 min, the cell pellet collected and re-suspended at 5000 cells/mL in assay media. Using a Combi liquid handler, cells were dispensed (50 uL, 250 cells/well) into three 384 well plates. Plates were incubated at 37° C., 5% CO2 for 18-22 h. On day 2, compounds were added. A liquid handling system was used to prepare the compound dilution and dispense compound into assay plates. The compounds were serially diluted 1/2 in 90% DMSO to create a 7 point dose curve. From compound plate, 100 nL of compound were dispensed directly into wells of the assay plates to create a dose curve starting at 20 uM and ending at 313 nM. Assay plates were incubated at 37° C., 5% CO2 for 96 h. On day 6, assay plates were removed from the incubator and allowed to sit at room temperature for 30 min. Using a liquid handler, 20 uL of CellTiter Glo reagent was added to each well. The assay plates were shaken for 2 min and allowed to sit on the bench for 10-15 minutes. The assay plates were read using the CellTiter Glo protocol on a GloMax microplate reader, and the data analyzed using GraphPad Prism. Activities of various agents, including various stapled peptides in Table E2, were confirmed.
In some embodiments, an assessment was performed as follows. On day 0, cells were seeded in cell culture media (RPMI1640, 4% FBS) in a 96-well plate at desired density, typically at 1000 cells/well. On day 1, 10 mM agent stock solution (in DMSO) was first serially diluted into DMSO at 1:2 ratio, followed by diluting with cell culture media at two times of the final concentrations. Finally, agent-containing media were introduced to cell culture wells already having the same volume of cell culture media. Cells were incubated with agents for desired days before lysed for CellTiter-Glo® Luminescent Cell Viability Assay according to the manufacture instruction (Promega, G7570). Luminescent signal was obtained from a microplate reader (GloMax, Promega). Cell viability data was expressed as % relative to DMSO control wells.
Proliferation Assay. In some embodiments, various proliferation assays are utilized to characterize or assess provided technologies. In some embodiments, on day 0, cells were seeded in cell culture media in a 96-well plate at desired density, typically at 1000 cells/well. On day 1, 10 mM compound stock solution was first serially diluted into DMSO, followed by diluting with cell culture media at two times of the final concentrations. Finally, compound-containing media were introduced to cell culture wells already having the same volume of cell culture media. Cells were incubated with compounds for desired days before lysed for CTG according to the manufacture instruction (G7570, Promega). Luminescent signal was obtained from a microplate reader (GloMax, Promega).
(In general: In ATP-based viability assays light output follows the ATP content of the culture.)
Turning to `CC(=O)N1CCC[C@]12CC=CCCCC1(CCCC=CCCCOC(=O)N3CC[C@@]4(C3)NC(=O)[C@H](CSCc3cccc(c3)CSC[C@@H](C(=O)N[C@@H](C)C(N)=O)NC(=O)[C@H](Cc3csc5ccccc35)NC(=O)[C@H](Cc3ccccc3C(F)(F)F)NC4=O)NC(=O)[C@H](Cc3ccccc3)NC(=O)[C@H](C)NC(=O)C(C)(C)NC(=O)[C@H](Cc3cccc(C(=O)O)c3)NC(=O)[C@H](CC(=O)O)NC1=O)NC(=O)[C@H](CC(C)(C)C)NC(=O)[C@H](CC(=O)O)NC2=O` (stereo partly drawn) [I-375, Ac-PL3-Asp-Npg-B5-Asp-3COOHF-Aib-Ala-Phe-[mXyl]Cys-PyrS2-2F3MeF-BztA-Cys-Ala-NH2], the pIC50 was at least 5.00.

The experiment is the same for the next values; noted with them: read-out: COLO320DM Proliferation Abs IC50.
For “Ac-PL3-Asp-Cha-B5-Asp-3COOHF-Ala-Ala-Phe-Lys*3-PyrS2-2ClF-BztA-GlnR*3-NH2 [I-1528]”, the pIC50 was at least 5.00. “Ac-PL3-Asp-Cha-B5-Asp-3COOHF-CyLeu-Ala-Phe-Lys*3-PyrS2-3Thi-34ClF-GlnR*3-NH2 [I-1047]”: the pIC50 is at least 5.00. On the same count and under the same terms, for “Ac-PL3-Asp-Chg-B5-Asp-3COOHF-Aib-Ala-Phe-Lys*3-PyrS2-2ClF-34ClF-GlnR*3-NH2 [I-1505]” the value was at least 5.00. On the same count and under the same terms, for “Ac-PL3-Asp-Chg-B5-Asp-3COOHF-Aib-Ala-Phe-Lys*3-PyrS2-2ClF-BztA-GlnR*3-NH2 [I-1530]” the value was at least 5.00. Still for that read-out and setting: the same measure for “Ac-PL3-Asp-Chg-B5-Asp-3COOHF-Aib-Ala-Phe-Lys*3-PyrS2-3Thi-34ClF-GlnR*3-NH2 [I-1037]”: at least 5.00; for “Ac-PL3-Asp-Chg-B5-Asp-3COOHF-Aib-Ala-Phe-Lys*3-PyrS2-Phe-34ClF-GlnR*3-NH2 [I-1048]”: at least 5.00. As for “Ac-PL3-Asp-Chg-B5-Asp-3COOHF-Ala-Ala-Phe-Lys*3-PyrS2-2ClF-34ClF-GlnR*3-NH2 [I-1506]”, the pIC50 is at least 5.00. On the same count and under the same terms, for “Ac-PL3-Asp-Chg-B5-Asp-3COOHF-Ala-Ala-Phe-Lys*3-PyrS2-2ClF-BztA-GlnR*3-NH2 [I-1531]” the value was at least 5.00. On the same count and under the same terms, for “Ac-PL3-Asp-Chg-B5-Asp-3COOHF-CyLeu-Ala-Phe-Lys*3-PyrS2-3Thi-34ClF-GlnR*3-NH2 [I-1044]” the value was at least 5.00; for “Ac-PL3-Asp-Chg-B5-Asp-3COOHF-CyLeu-Ala-Phe-Lys*3-PyrS2-Phe-34ClF-GlnR*3-NH2 [I-1056]”, at least 5.00.

With “Ac-PL3-Asp-DipA-B5-Asn-3COOHF-nLeu-Ala-Phe-Lys*3-PyrS2-3Thi-34ClF-GlnR*3-NH2 [I-1638]”, the pIC50 is at least 5.00. Same read-out and setting: for “Ac-PL3-Asp-DipA-B5-Asp-3COOHF-Aib-Ala-Phe-Lys*3-PyrS2-3Thi-34ClF-GlnR*3-NH2 [I-1108]” the value was at least 5.00; for “Ac-PL3-Asp-DipA-B5-Asp-3COOHF-Ala-Ala-Phe-Lys*3-PyrS2-3Thi-34ClF-GlnR*3-Ala-Ala-Ala-[mPEG8]-Lys [I-1705]”, at least 5.00.

As to “Ac-PL3-Asp-DipA-B5-Asp-3COOHF-Ala-Ala-Phe-Lys*3-PyrS2-3Thi-34ClF-GlnR*3-Ala-Ala-Ala-[mPEG37]-Lys [I-1706]”, the pIC50 was at least 5.00.

As for “Ac-PL3-Asp-DipA-B5-Asp-3COOHF-Ala-Ala-Phe-Lys*3-PyrS2-3Thi-34ClF-GlnR*3-Ala-Ala-[Ac-PEG8]-Lys-NH2-NH2 [I-1788]”, the pIC50 was at least 5.00.

With “Ac-PL3-Asp-DipA-B5-Asp-3COOHF-Ala-Ala-Phe-Lys*3-PyrS2-3Thi-34ClF-GlnR*3-Ala-Ala-[Ac-dPEG2]-Lys-NH2-NH2 [I-1787]”, the pIC50 is at least 5.00. Regarding “Ac-PL3-Asp-DipA-B5-Asp-3COOHF-Ala-Ala-Phe-Lys*3-PyrS2-3Thi-34ClF-GlnR*3-Ala-Ala-[C18-PEG8]-Lys-NH2-NH2 [I-1792]”, the pIC50 was at least 5.00. Still for that read-out and setting: the same measure for “Ac-PL3-Asp-DipA-B5-Asp-3COOHF-Ala-Ala-Phe-Lys*3-PyrS2-3Thi-34ClF-GlnR*3-Ala-Ala-[C18-dPEG2]-Lys-NH2-NH2 [I-1791]”: at least 5.00; for “Ac-PL3-Asp-DipA-B5-Asp-3COOHF-Ala-Ala-Phe-Lys*3-PyrS2-3Thi-34ClF-GlnR*3-Ala-Ala-[Oct-PEG8]-Lys-NH2-NH2 [I-1790]”: at least 5.00; for “Ac-PL3-Asp-DipA-B5-Asp-3COOHF-Ala-Ala-Phe-Lys*3-PyrS2-3Thi-34ClF-GlnR*3-Ala-Ala-[Oct-dPEG2]-Lys-NH2-NH2 [I-1789]”: at least 5.00. On the same count and under the same terms, for “Ac-PL3-Asp-DipA-B5-Asp-3COOHF-Ala-Ala-Phe-Lys*3-PyrS2-3Thi-34ClF-GlnR*3-Ala-Ala-[mPEG8]-Lys-NH2 [I-1703]” the value was at least 5.00; for “Ac-PL3-Asp-DipA-B5-Asp-3COOHF-Ala-Ala-Phe-Lys*3-PyrS2-3Thi-34ClF-GlnR*3-Ala-Ala-[mPEG37]-Lys-NH2 [I-1704]”, at least 5.00; for “Ac-PL3-Asp-DipA-B5-Asp-3COOHF-Ala-Ala-Phe-Lys*3-PyrS2-3Thi-34ClF-GlnR*3-NH2 [I-1111]”, at least 5.00. On to “Ac-PL3-Asp-DipA-B5-Asp-3COOHF-Ala-Ala-Phe-Lys*3-PyrS2-3Thi-34ClF-GlnR*3-[mPEG8]-Lys-NH2 [I-1701]”, for which the pIC50 was at least 5.00.

On to “Ac-PL3-Asp-DipA-B5-Asp-3COOHF-Ala-Ala-Phe-Lys*3-PyrS2-3Thi-34ClF-GlnR*3-[mPEG37]-Lys-NH2 [I-1702]”, for which the pIC50 was at least 5.00. Same read-out and setting: for “Ac-PL3-Asp-DipA-B5-Asp-3COOHF-Ala-Ala-Phe-Lys*3-PyrS2-3Thi-BztA-GlnR*3-Ala-NH2 [I-982]” the value was at least 5.00. The same measure, in the same setting: for “Ac-PL3-Asp-DipA-B5-Asp-3COOHF-CyLeu-Ala-Phe-Lys*3-PyrS2-2F3MeF-34ClF-GlnR*3-Leu-NH2 [I-1769]” the value was at least 5.00; for “Ac-PL3-Asp-DipA-B5-Asp-3COOHF-CyLeu-Ala-Phe-Lys*3-PyrS2-2F3MeF-34ClF-GlnR*3-Val-NH2 [I-1773]”, at least 5.00; for “Ac-PL3-Asp-DipA-B5-Asp-3COOHF-CyLeu-Ala-Phe-Lys*3-PyrS2-2F3MeF-BztA-GlnR*3-Leu-NH2 [I-1770]”, at least 5.00.

Regarding “Ac-PL3-Asp-DipA-B5-Asp-3COOHF-CyLeu-Ala-Phe-Lys*3-PyrS2-2F3MeF-BztA-GlnR*3-NH2 [I-1766]”, the pIC50 is below 4.70.

Regarding “Ac-PL3-Asp-DipA-B5-Asp-3COOHF-CyLeu-Ala-Phe-Lys*3-PyrS2-2F3MeF-BztA-GlnR*3-Phe-NH2 [I-1777]”, the pIC50 was at least 5.00. “Ac-PL3-Asp-DipA-B5-Asp-3COOHF-CyLeu-Ala-Phe-Lys*3-PyrS2-2F3MeF-BztA-GlnR*3-Ser-NH2 [I-1772]”: the pIC50 was at least 5.00. The same measure, in the same setting: for “Ac-PL3-Asp-DipA-B5-Asp-3COOHF-CyLeu-Ala-Phe-Lys*3-PyrS2-2F3MeF-BztA-GlnR*3-Val-NH2 [I-1774]” the value was at least 5.00; for “Ac-PL3-Asp-DipA-B5-Asp-3COOHF-CyLeu-Ala-Phe-Lys*3-PyrS2-3Thi-34ClF-GlnR*3-Ala-NH2 [I-1118]”, at least 5.00; for “Ac-PL3-Asp-DipA-B5-Asp-3COOHF-CyLeu-Ala-Phe-Lys*3-PyrS2-3Thi-34ClF-GlnR*3-NH2 [I-1117]”, at least 5.00. Still for that read-out and setting: the same measure for “Ac-PL3-Asp-DipA-B5-Asp-3COOHF-Val-Ala-Phe-Lys*3-PyrS2-3Thi-BztA-GlnR*3-Ala-NH2 [I-984]”: at least 5.00; for “Ac-PL3-Asp-DipA-B5-Asp-3COOHF-Val-Ala-Phe-Lys*3-PyrS2-Phe-BztA-GlnR*3-dPro-NH2 [I-1855]”: at least 5.00. Same read-out and setting: for “Ac-PL3-Asp-DipA-B5-Asp-3COOHF-nLeu-Ala-Phe-Lys*3-PyrS2-3Thi-BztA-GlnR*3-Ala-NH2 [I-986]” the value was at least 5.00; for “Ac-PL3-Asp-DipA-B5-aThr-3COOHF-nLeu-Ala-Phe-Lys*3-PyrS2-3Thi-34ClF-GlnR*3-NH2 [I-1639]”, at least 5.00; for “Ac-PL3-Asp-Ile-B5-Asp-3COOHF-Aib-Ala-Phe-1MeK*3-PyrS2-Phe-34ClF-GlnR*3-NH2 [I-1369]”, at least 5.00. As to “Ac-PL3-Asp-Ile-B5-Asp-3COOHF-Aib-Ala-Phe-1MeK*3-PyrS2-Phe-34ClF-hGlnR*3-NH2 [I-1373]”, the pIC50 is below 4.70. For the compound “Ac-PL3-Asp-Ile-B5-Asp-3COOHF-Aib-Ala-Phe-GlnR*3-PyrS2-Phe-34ClF-1MeK*3-NH2 [I-1370]”, the pIC50 was at least 5.00.
